Columns and labels:
mice [1] = assay: Maximal Electroshock Seizure (MES) test, mice i.p.; assay type: in vivo; details: for activity in the MES test: mice; for MES, fraction of animals: mice i.p.
mice [2] = assay: 6 Hz (minimal clonic seizure) model, mice i.p.; assay type: in vivo; details: for 6 Hz (32 mA), fraction of animals: mice i.p.; for activity in the 6 Hz (minimal clonic seizure) model: mice
[3] = tested on: rat dopaminergic N27 cells; assay: N27 protection assay against oxidative stress (H2O2 or MPP+; MTT and LDH); assay type: cell-based; details: drug 24 hours before 200 μM H2O2 or 640 μM MPP+
Excerpt: FIGS. 20A-25D data are shown illustrating neuroprotective and neuroregenerative effects observed in rat dopaminergic N27 cells. Rat dopaminergic N27 cells are commonly used in in vitro and in vivo model systems for studying Parkinson's disease. Parkinson's disease is a neurodegenerative disorder of the central nervous system that affects more than 6 million people worldwide. The motor symptoms of Parkinson's disease result from the death of dopamine generating cells in the substantia nigra, a region of the midbrain.
The N27 rat dopaminergic neuron cell line was harvested from E12 rat mesencephalic tissue and was transfected with SV40 to immortalize the cell line. The N27 cell line, when injected into the striata of 6-hydroxydopamine-lesioned rats (an animal model of PD) caused a time-dependent improvement in neurological deficits. This immortalized cell line has been carefully characterized in studies of dopamine biosynthesis, neurotoxicity and used as a dopaminergic neuron model studies.
The N27 in vitro Parkinson's disease model included a test of cell viability and cell toxicity in response to exposure to oxidative stress (e.g., either 200 μM H2O2 or 640 μM MPP+).
Cell viability was tested using the MTT assay. The MTT assay is a colorimetric analysis based on the activities of mitochondrial NAD(P)H-dependent cellular oxidoreductase enzymes. These enzymes are capable of reducing the tetrazolium dye, MTT [3-(4,5-dimethylthiazol-2-yl)-2,5-diphenyltetrazolium] bromide, to an insoluble formazan (purple). […] More viable cells equal more accumulation of the insoluble formazan dye.
Cell toxicity was tested using the […] (LDH) assay. Cells that are stressed secrete LDH. In general, the more cells are stressed, the LDH they secrete into their media. The LDH assay is a reliable colorimetric assay to measure quantitatively the […] (LDH) that is released into the cell culture media from damaged cells as a biomarker for cytotoxicity and cytolysis.
FIGS. 20A-25D present data from two types of assays: protection and recovery assays. In the protection assays, the drug candidate was applied to the cells at various concentrations for 24 hours, followed by the exposure to oxidative stress (either 200 μM H2O2 or 640 μM MPP+) for measuring neuroprotective effect. H2O2 provides a broad measure of oxidative stress, while MPP+ gives a more specific oxidative stress to dopaminergic neurons.
The protection assay results are shown in panels A-C of FIGS. 20-25 In the recovery assays, the cells were first damaged by exposure to H2O2 and then various concentrations of the drug were applied to the cells. The results for the recovery assays are shown the D panels of FIGS. 20-25.

rats = assay: Pilocarpine-induced Status Epilepticus in Rats (prevention; intervention @ 30 min)
Method: The animal testing was performed using the protocols developed in the Anticonvulsant Screening Program (ASP) at the National Institute of Neurological Disorders and Stroke (NINDS), National Institutes of Health (NIH).

SMN2 promoter = SMN2 promoter β-lactamase reporter assay in NSC34 motor neuron-like cells; assay type: cell-based; details: for Promoter (SMN2 promoter test, summary YES/NO): Table 13 summary; for SMN2 promoter activity: treatment for 19 hours at a concentration of 1 μM
Method: FIG. 30 illustrates a screen for SMN2 expression of a number of compounds described herein.
SMN2 promoter activity was measured using NSC34 motor neuron-like cells stably transfected with a β-lactamase (BLA) reporter gene under the control of a 3.4-kilobase fragment of the SMN2 promoter. D156844 was used as a positive control for this assay.

mice [4] = assay: Subcutaneous Metrazol Seizure threshold (s.c. MET) test, mice i.p.; assay type: in vivo
mice [5] = assay: Minimal motor impairment (MID50), mice i.p.; details: mice i.p.; 100 mg/kg @ 0.5 hr
Method: The animal testing was performed according to methods known in the relevant art.

[6] = tested on: inclusion of exon 7 in SMN2 mRNAs; assay: Exon 7 inclusion BLA reporter assay in NSC34 cell line; assay type: cell-based
Excerpt: To measure changes in the inclusion of exon 7 in SMN2 mRNAs, another NSC34 cell line was used that stably transfected with a reporter construct which expresses BLA when exon 7 is included in the SMN2 minigene mRNAs. 5-(N-ethyl-N-isopropyl)-amiloride (EIPA) was used as a positive control for this assay. Data for tis assay is illustrated in FIG. 30.

[7] = NSC34 exon 7 BLA reporter cells

| SMILES | activity in the MES test (mice [1]; at 100 mg/kg) | neuroprotective effect against H2O2 and MPP+ oxidative stresses (MTT and LDH assays) [3] | MES, fraction of animals (mice [1]; 100 mg/kg @ 0.5 hr) | activity in the 6 Hz (minimal clonic seizure) model (mice [2]; at 100 mg/kg) | Promoter (SMN2 promoter test, summary YES/NO) (SMN2 promoter) | SMN2 promoter activity (SMN2 promoter) | MES, fraction of animals (mice [1]; 100 mg/kg @ 0.25 hr) | also measured |
| --- | --- | --- | --- | --- | --- | --- | --- | --- |
| COc1ccc2cc(C(C)CC(N)=O)ccc2c1 (stereo not drawn) [Compound AE, 3-(6-Methoxynaphthalen-2-yl)-butyramide] | activity | statistically significant, dose-dependent neuroprotection |  |  |  |  |  | 6 Hz (32 mA), fraction of animals (mice [2]; 200 mg/kg @ 0.25 hr): 2/4 @ 0.25 hrs; activity in the 6 Hz (minimal clonic seizure) model (mice [2]; at 200 mg/kg): activity |
| CC(CC(N)=O)c1ccc(S(C)(=O)=O)cc1 (racemic) [AV] |  | statistically significant, dose-dependent neuroprotection |  |  |  |  |  | Prevention, Protection (rats; rats, pilocarpine-induced status epilepticus, dose 600 mg/kg): 25% |
| CC1CCN(C(=O)CC(C)c2ccc(OC(F)(F)F)cc2)CC1 (stereo not drawn) [BK, 1-(4-Methyl-piperidin-1-yl)-3-(4-trifluoromethoxy-phenyl)-butan-1-one] |  | statistically significant, dose-dependent neuroprotection | 1/3 | activity | YES | increased SMN2 promoter activity |  | MES, fraction of animals (mice [1]; 100 mg/kg @ 2.0 hr): 2/3 |
| CC(CC(=O)N(C)C)c1ccc(OC(F)(F)F)cc1 (stereo not drawn) [BD, N,N-Dimethyl-3-(4-trifluoromethoxy-phenyl)-butyramide] | activity |  | 1/1 @ |  |  |  |  | activity in the s.c. MET test (mice [4]; mice, at 300 mg/kg): activity; 6 Hz (32 mA), fraction of animals (mice [2]; 100 mg/kg @ 2.0 hr): 2/4 @ 0.5,; MID50, fraction of animals (mice [5]): 4/8 @ 0.5 hrs, |
| CNC(=O)CC(C)c1ccc2c(c1)OCO2 (stereo not drawn) [Compound M, N-methyl-3-(3,4-methylenedioxy-phenyl)butyramide] |  | potent dose-dependent neuroprotective effects |  |  | YES | increased SMN2 promoter activity |  | responders at 600 mg/kg (rats; Rattus norvegicus, read-out: Prevention, Protection): 100% |
| NC(=O)CC1(c2ccc(Cl)cc2)CCCC1 [AJ] |  |  |  |  | YES | increased SMN2 promoter activity | 3/3 | MES, fraction of animals (mice [1]; 100 mg/kg @ 1.0 hr): 1/3; s.c. MET, fraction of animals (mice [4]; mice i.p., 300 mg/kg @ 0.5 hrs): 1/1 @ 0.5 hrs,; effect on the inclusion of exon 7 in SMN2 transcripts [6, 7]: positive effect on the inclusion of exon 7; exon 7 test, particularly strong hits [6, 7]: Particularly strong hits; Exon 7 inclusion (summary YES/NO) ([6]; Table 13 summary): YES |
| COCCNC(=O)CC(C)c1ccc(OC(F)(F)F)cc1 (stereo not drawn) [BL, N-(2-Methoxy-ethyl)-3-(4-trifluoromethoxy-phenyl)-butyramide] | activity | statistically significant, dose-dependent neuroprotection |  | activity |  |  | 2/3 @ |  |
| COc1ccc(C(CC(N)=O)C2CC2)cc1C (stereo not drawn) [AN, 3-Cyclopropyl-3-(4-methoxy-3-methyl-phenyl)propionamide] | activity |  |  | activity | YES | increased SMN2 promoter activity | 1/3 @ | 6 Hz (32 mA), fraction of animals (mice [2]; 100 mg/kg @ 0.25 hr): 4/4; 6 Hz (32 mA), fraction of animals (mice [2]; 100 mg/kg @ 0.5 hr): 3/4; 6 Hz (32 mA), fraction of animals (mice [2]; 100 mg/kg @ 1.0 hr): 1/4 @; effect on the inclusion of exon 7 in SMN2 transcripts [6, 7]: positive effect on the inclusion of exon 7 |
| CC(CC(=O)N(C)C)c1ccc2c(c1)OCO2 (stereo not drawn) [Compound N, N,N-dimethyl-3-(3,4-methylenedioxy-phenyl)butyramide] |  | potent dose-dependent neuroprotective effects | 1/3 @0.5 hr, |  |  |  |  | activity in the MES test (mice [1]; at 300 mg/kg): activity |
